According to PMC11892739, “Site-specific molecular glues for the 14-3-3/Tau pS214 protein–protein interaction via reversible covalent imine tethering” (RSC Medicinal Chemistry, 2025):

Experiments:
Assay type in all cases: binding
14-3-3ζ/RND3 peptide = biological target: T1, 14-3-3ζ/RND3 peptide (Homo sapiens, UniProt P63104); test: FA peptide screen, 14-3-3ζ titration to client peptide and compound: RND3; conditions: 250 μM compound, 100 nM peptide; +1 Cys
T1 construct: made in house; host or cells: NiCo21 (DE3) E. coli
T1 sequence (P63104 whole entry, other chains not shown): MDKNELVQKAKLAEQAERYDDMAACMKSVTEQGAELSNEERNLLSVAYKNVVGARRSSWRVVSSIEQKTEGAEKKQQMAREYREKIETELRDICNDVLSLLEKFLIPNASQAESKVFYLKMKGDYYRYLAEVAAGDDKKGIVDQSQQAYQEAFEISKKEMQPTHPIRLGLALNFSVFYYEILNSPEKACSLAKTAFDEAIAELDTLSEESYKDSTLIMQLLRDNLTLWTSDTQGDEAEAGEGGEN
Protocol: (§1) Since the hub protein 14-3-3 binds to hundreds of phosphoprotein partners, selectivity of PPI stabilization is a major challenge. The interplay of chemical reactivity, and the topology and functionality of the composite binding pocket shaped by 14-3-3 and Tau potentially provide entries towards selective stabilization. […] Here, 14-3-3ζ was titrated to a constant concentration of client peptide (100 nM) and compound (250 μM) to determine the SF250μM values for the particular 14-3-3 PPI. A variety of 14-3-3 binding proteins was represented in this client panel whereby the size and hydrophobicity of the +1 amino acid were varied. […]
(§2) chromatography (HisTrap high performance cartridges, Cytiva). Typically two 5 mL columns were used for a 2 L culture in which the lysate was loaded on the column, washed with 10 CV wash buffer (50 mM Hepes, pH 8.0, 300 mM NaCl, 25 mM imidazole, 2 mM βME), and eluted with several fractions (2-4 CV) of elution buffer (50 mM Hepes, pH 8.0, 300 mM NaCl, 250 mM imidazole, 2 mM βME). […] Dialyzed protein was concentrated to ∼40 mg/mL, analyzed by Q -Tof LC/MS, and aliquots were flash -frozen for storage at −80 °C. […] Fractions containing the 14 -3-3 protein were pooled and concentrated to ∼60 mg/mL, analyzed Q -Tof LC/MS, and aliquots were flash -frozen for storage at −80°C.
(§3) Fluorescence Anisotropy – compound titration […]

[1] = tested on: 14-3-3ζ/Tau pS2 peptide interaction; test: Fluorescence anisotropy 14-3-3ζ titration in the presence of 250 μM compound and Tau pS2 peptide; conditions: 250 μM compound; 100 nM client peptides, 10 nM Tau pS2 peptide
Protocol: On the other hand, the PPI stabilizing potency of series 1 compounds was highly dependent on the position and chemical property of the substituent. […] The compound screen for these compounds was further complemented by 14-3-3ζ titration assays in the presence of a constant concentration of compound (250 μM) and Tau pS2 peptide (10 nM) (Fig. 3c, ESI ^† Fig. S6).
This statement is strengthened by the diminished stabilizing activity when shifting the more polar chloro substituent from the para (14) to the ortho (5) to the meta position (8), respectively. […]
chromatography (HisTrap high performance cartridges, Cytiva). Typically two 5 mL columns were used for a 2 L culture in which the lysate was loaded on the column, washed with 10 CV wash buffer (50 mM Hepes, pH 8.0, 300 mM NaCl, 25 mM imidazole, 2 mM βME), and eluted with several fractions (2-4 CV) of elution buffer (50 mM Hepes, pH 8.0, 300 mM NaCl, 250 mM imidazole, 2 mM βME). Fractions containing the 14-3-3 protein were combined and dialyzed into 25 mM HEPES pH 8.0, 200 mM NaCl, 10 mM MgCl2, 2 mM βME, followed by dialysis into 25 mM HEPES, 100 mM NaCl, 10 mM MgCl2, 500 μM TCEP (adjusted to pH 8.0). Dialyzed protein was concentrated to ∼40 mg/mL, analyzed by Q -Tof LC/MS, and aliquots were flash -frozen for storage at −80 °C. For 14 -3-3σ∆c, 1 mg TEV per 100 mg purified protein was added to the dialysis to remove the purification tag. The cleaved sample was then again loaded on a 10 mL Ni-NTA column to separate the cleaved product from the expression tag and residual uncleaved protein. The flowthrough was loade d on a Superdex 75 pg 16/60 size exclusion column (GE Life Sciences) using 25 mM HEPES, 100 mM NaCl, 10 mM MgCl2, 500 μM TCEP (adjusted to pH = 8.0) as running buffer. Fractions containing the 14 -3-3 protein were pooled and concentrated to ∼60 mg/mL, analyzed Q -Tof LC/MS, and aliquots were flash -frozen for storage at −80°C.
Fluorescence Anisotropy – compound titration
Compound titration assays were performed by titrating compounds (in 1% DMSO, starting at 500 μM) in a 2-fold dilution series to preformed complex of fluorescein -labeled Tau pS2 (10 nM) and 14 -3-3ζ (100 nM) (which represents approximately 20% bound Tau pS2 peptide to 14 -3-3ζ to allow further complex formation by addition of fragments 1) in FA buffer (10 mM HEPES pH 7.4, 150 mM NaCl, 50 µM TCEP, 0.1% (v/v) Tween20, 0.1% (w/v) BSA). Dilution series were made in polystyrene low -volume 384 -well plates (Corning #4514, Black Round Bottom). Measurements were performed directly after plate preparation, using a Tecan SPARK plate reader at room temperature ( λex: 485±20 nm; λem: 535±25 nm; mirror: automatic; flashes: 30; settle time: 1 ms; gain: optimal; Z -position: calculated from well). Wells containing only fluorescein labelled peptide were used to set as G -factor calibrated from these wells. All data were analyzed using GraphPad Prism (10.0.1) and fitted with a four -parameter logistic model (4PL) to determine binding affinities (dissociation constant, KD). All data shown is background corrected for the signal without 14 -3-3ζ and the mean and standard deviation of technical duplicate is plotted, assay performed in a scientific duplicate for hit compounds.
Fluorescence Anisotropy – 14-3-3 titrations in the presence of compound To characterize the affinity of the Tau peptides for 14-3-3 in the presence of compound, 14-3-3ζ or γ was titrated in a 2-fold dilution series starting at 400 (for the 14-3-3ζ titrations to Tau pS2) or 800 (for the 14-3-3γ titrations to Tau pS214 or pS324) µM. 14-3-3 was added to 10 nM of fluorescein-labeled peptide (Tau pS2, Tau pS214 or Tau pS324) in the presence of 250 µM compound (1% DMSO). The assays were performed in a similar way as described above. Data shown is the average and standard deviation of a technical duplicate, top plateau corrected where needed, assay performed in a scientific duplicate.
Fluorescence Anisotropy – peptide screen […]

14-3-3ζ/Rubic peptide = biological target: T2, 14-3-3ζ/Rubic peptide (Homo sapiens, UniProt P63104); test: FA peptide screen, 14-3-3ζ titration to client peptide and compound: Rubic; conditions: 250 μM compound, 100 nM peptide; +1 Phe
T2 construct: made in house; host or cells: NiCo21 (DE3) E. coli
T2 sequence (P63104 whole entry, other chains not shown): as above
Protocol: as §1, §2, §3

14-3-3ζ/Raptor peptide = biological target: T3, 14-3-3ζ/Raptor peptide (Homo sapiens, UniProt P63104); test: FA peptide screen, 14-3-3ζ titration to client peptide and compound: Raptor; conditions: 250 μM compound, 100 nM peptide; +1 Tyr
T3 construct: made in house; host or cells: NiCo21 (DE3) E. coli
T3 sequence (P63104 whole entry, other chains not shown): as above
Protocol: as §1, §2, §3

14-3-3ζ/C-Raf peptide = biological target: T4, 14-3-3ζ/C-Raf peptide (Homo sapiens, UniProt P63104); test: FA peptide screen, 14-3-3ζ titration to client peptide and compound: C-Raf; conditions: 250 μM compound, 100 nM peptide; +1 Thr
T4 construct: made in house; host or cells: NiCo21 (DE3) E. coli
T4 sequence (P63104 whole entry): as the sequence (P63104 whole entry, other chains not shown) above
Protocol: as §1, §2, §3

For `CCc1ccc(-c2nccn2-c2ccc(C=O)c(Br)c2)cc1` [Compound 18], the “stabilization of 14-3-3/RND3 peptide (in words)” value (14-3-3ζ/RND3 peptide) was “did not show significant stabilizing activity”, the “selectivity against panel of 13 14-3-3 client peptides (in words)” value [1] was “selective for the 14-3-3ζ/Tau pS2 peptide complex” and the “stabilization of 14-3-3/Rubic peptide (in words)” value (14-3-3ζ/Rubic peptide) was “no significant stabilization”. For the same compound, the “stabilization of 14-3-3/Raptor peptide (in words)” value (14-3-3ζ/Raptor peptide) was “no significant stabilization” and the “stabilization of 14-3-3/C-Raf peptide (in words)” value (14-3-3ζ/C-Raf peptide) was “did not show significant stabilizing activity”.
